Here are results for 15 compounds from US11655238B2 (priority 2018, dated 2023).

Converted amounts (≈) assume the structure as drawn.

In experiment [1] the test system is Mycobacterium smegmatis strain (mc2155). The experiment is described as follows: Resazurin microplate MIC on Mycobacterium smegmatis. It is filed as cell-based. The settings on record: for MIC: Mycolicibacterium smegmatis, MC2155, 48 h, read-out: MIC (μg/mL) Mycobacterium smegmatis.
For experiment [2], the system named is Mycobacterium bovis BCG strain. In words: microbe, parasite or virus in culture. It is filed as cell-based. The settings on record: for MIC: Mycobacterium tuberculosis variant bovis BCG, BCG, 168 h, read-out: MIC (μg/mL) Mycobacterium bovis BCG, BCG strain, 7H9 medium, 37° C., 168 hours, resazurin; for inhibitory effect on BCG strain (summary of Table 2): in words.

The test system of experiment [3] is Mycobacterium tuberculosis H37Ra strain. The experiment is described as follows: microbe, parasite or virus in culture. The class given is cell-based. The settings on record: for MIC: Mycobacterium tuberculosis, H37RA, 168 h, read-out: MIC (μg/mL) Mycobacterium tuberculosis H37Ra.
For experiment [4], the system named is Mycobacterium tuberculosis (H37Rv). The settings on record: reports, in words; cited from earlier work.
[5] abbreviates: mc2155, 7H9 medium, 37° C., 48 hours, resazurin.

For `Cc1c(C(=O)NCCNC23CC4CC(CC(C4)C2)C3)nn(-c2ccc(Cl)cc2Cl)c1-c1ccc(Cl)cc1` [Compound 163, N-(2-(((3s,5s,7s)-adamantan-1-yl)amino)ethyl)-5-(4-chloro-phenyl)-1-(2,4-dichloro-phenyl)-4-methyl-1H-pyrazole-3-carboxamide], the “inhibitory effect on smegmatis strain (summary of Table 2)” value (“inhibitory effect on smegmatis strain” below) in experiment [1] is recorded as “good inhibitory effects”. Also, the MIC in experiment [1] (setting [5]) was 14.6 µg/mL (≈ 26.2 µM). Besides, in experiment [2], the MIC was 3.66 µg/mL (≈ 6.56 µM) and the “inhibitory effect on BCG strain (summary of Table 2)” value (shortened to “inhibitory effect on BCG strain”) was “good inhibitory effects”. Further, in experiment [3], the “inhibitory effect on H37Ra strain (summary of Table 2)” value (shortened to “inhibitory effect on H37Ra strain”) is “good inhibitory effects” and the MIC amounted to 3.66 µg/mL (≈ 6.56 µM).
With `Cc1c(CNCCCCNC2C3CC4CC(C3)CC2C4)nn(-c2ccc(Cl)cc2Cl)c1-c1ccc(Cl)cc1` (stereo not shown) [Compound 167, N1-((1r,3r,5r,7r)-adamantan-2-yl)-N4-((5-(4-chlorophenyl)-1-(2,4-dichlorophenyl)-4-methyl-1H-pyrazol-3-yl)-methyl)butane-1,4-diamine], the MIC in experiment [1] (setting [5]) was 2.1 µg/mL (≈ 3.67 µM); in experiment [2], 1.05 µg/mL (≈ 1.84 µM); in experiment [3], 2.1 µg/mL (≈ 3.67 µM).
For `Cc1c(C(=O)NCCCCNC2C3CC4CC(C3)CC2C4)nn(-c2ccc(Cl)cc2Cl)c1-c1ccc(Cl)cc1` (stereo not shown) [Compound 19, N-(4-(((1r,3r,5r,7r)-adamantan-2-yl)amino)butyl)-5-(4-chlorophenyl)-1-(2,4-dichlorophenyl)-4-methyl-1H-pyrazole-3-carboxamide], in experiment [1], the “inhibitory effect on smegmatis strain” value is given as “good inhibitory effects”. The MIC in experiment [1] (setting [5]) worked out at 13.4 µg/mL (≈ 22.9 µM). Moreover, in experiment [2], the MIC came out at 6.71 µg/mL (≈ 11.5 µM) and the “inhibitory effect on BCG strain” value was “good inhibitory effects”. Further, in experiment [3], the “inhibitory effect on H37Ra strain” value is reported as “good inhibitory effects” and the MIC is 6.71 µg/mL (≈ 11.5 µM).
`Cc1c(CN(C)CCNC2C3CC4CC(C3)CC2C4)nn(-c2ccc(Cl)cc2Cl)c1-c1ccc(Cl)cc1` (stereo not shown) [Compound 165, N1-((1r,3r,5r,7r)-adamantan-2-yl)-N2-((5-(4-chloro-phenyl)-1-(2,4-dichloro-phenyl)-4-methyl-1H-pyrazol-3-yl)methyl)-N2-methylethane-1,2-diamine]: the MIC worked out at 57.9 µg/mL (≈ 104 µM) in experiment [1] (setting [5]), 3.62 µg/mL (≈ 6.49 µM) in experiment [2] and 1.81 µg/mL (≈ 3.24 µM) in experiment [3].
On to `Cc1ccc(-n2nc(C(=O)NCCNC3C4CC5CC(C4)CC3C5)c(C)c2-c2ccc(Cl)cc2)c(C)c1` (stereo not shown) [Compound 77, N-(2-(((1r,3r,5r,7r)-adamantan-2-yl)amino)ethyl-5-(4-chloro-phenyl)-1-(2,4-dimethylphenyl)-4-methyl-1H-pyrazole-3-carboxamide], for which, in experiment [1], the “inhibitory effect on smegmatis strain” value is reported as “good inhibitory effects”. The MIC in experiment [1] (setting [5]) was 10.4 µg/mL (≈ 20 µM); in experiment [2], 5.18 µg/mL (≈ 10 µM); in experiment [3] it was 2.59 µg/mL (≈ 5.01 µM). In addition, in experiment [2], the “inhibitory effect on BCG strain” value is “good inhibitory effects”. In addition, in experiment [3], the “inhibitory effect on H37Ra strain” value was “good inhibitory effects”.
As to `Cc1c(C(=O)OC2CC3CCC2(C)C3(C)C)nn(-c2ccc(Cl)cc2Cl)c1-c1ccc(Cl)cc1` (stereo not shown) [Compound 171, 1,7,7-trimethylbicyclo[2.2.1]-heptan-2-yl 5-(4-chlorophenyl)-1-(2,4-dichlorophenyl)-4-methyl-1H-pyrazole-3-carbox-ylate], the MIC in experiment [1] (setting [5]) is 200 µg/mL (≈ 386 µM); in experiment [2] it was over 200 µg/mL; in experiment [3], over 200 µg/mL.
With `Cc1c(CNC(=O)NC23CC4CC(CC(C4)C2)C3)nn(-c2ccc(Cl)cc2Cl)c1-c1ccc(Cl)cc1` [Compound 10, 1-((3s,5s,7s)-adamantan-1-yl)-3-((5-(4-chlorophenyl)-1-(2,4-dichlorophenyl)-4-methyl-1H-pyrazol-3-yl)methyl)urea], the MIC in experiment [1] (setting [5]) is 171 µg/mL (≈ 314 µM); in experiment [2], over 171 µg/mL; in experiment [3], over 171 µg/mL.
Consider `Cc1c(C(=O)NCCNC2C3CC4CC(C3)CC2C4)nn(-c2ccc(F)cc2F)c1-c1ccc(Cl)cc1` (stereo not shown) [Compound 76, N-(2-(((1r,3r,5r,7r)-adamantan-2-yl)amino)ethyl)-5-(4-chloro-phenyl)-1-(2,4-difluorophenyl)-4-methyl-1H-pyrazole-3-carboxamide], for which, in experiment [1], the “inhibitory effect on smegmatis strain” value is reported as “good inhibitory effects”. Besides, the MIC in experiment [1] (setting [5]) was found to be 7.32 µg/mL (≈ 13.9 µM). Also, in experiment [2], the MIC was 3.66 µg/mL (≈ 6.97 µM) and the “inhibitory effect on BCG strain” value was “good inhibitory effects”. Moreover, in experiment [3], the “inhibitory effect on H37Ra strain” value is “good inhibitory effects” and the MIC came out at 1.83 µg/mL (≈ 3.49 µM).
Regarding `Cc1c(C(=O)NN2CCCCC2)nn(-c2ccc(Cl)cc2Cl)c1-c1ccc(Cl)cc1` [Rimonabant, rimonabant, reference compound], in experiment [1] (setting [5]), the MIC was 17 µg/mL (≈ 36.6 µM) and the “MIC (μg/mL) Mycobacterium smegmatis” value was 16.99 µg/mL (≈ 36.6 µM). For the same compound, the “MIC (μg/mL) Mycobacterium bovis BCG” value in experiment [2] (BCG strain, 7H9 medium, 37° C., 168 hours, resazurin) is 33.99 µg/mL (≈ 73.3 µM). The MIC in experiment [2] came out at 34 µg/mL (≈ 73.3 µM). For the same compound, in experiment [3], the “MIC (μg/mL) Mycobacterium tuberculosis H37Ra” value came out at 16.99 µg/mL (≈ 36.6 µM) and the MIC came to 17 µg/mL (≈ 36.6 µM). Moreover, in experiment [4], the “effect against Mycobacterium tuberculosis (H37Rv)” value was “significant effect”.
As to `Cc1c(C(=O)N2CCN(C(=O)C34CC5CC(CC(C5)C3)C4)CC2)nn(-c2ccc(Cl)cc2Cl)c1-c1ccc(Cl)cc1` [Compound 170, ((3r,5r,7r)-adamantan-1-yl)(4-(5-(4-chlorophenyl)-1-(2,4-dichlorophenyl)-4-methyl-1H-pyrazole-3-carbonyl)piperazin-1-yl)methanone], the MIC in experiment [1] (setting [5]), in experiment [2] and in experiment [3] was over 293 µg/mL in each case.
Consider `Cc1c(C(=O)O[C@H]2C[C@H]3CC[C@]2(C)C3(C)C)nn(-c2ccc(Cl)cc2Cl)c1-c1ccc(Cl)cc1` [Compound 173, (1R,2S,4R)-1,7,7-trimethyl-bicyclo[2.2.1]heptan-2-yl 5-(4-chlorophenyl)-1-(2,4-dichlorophenyl)-4-methyl-1H-pyrazole-3-carboxylate], for which the MIC in experiment [1] (setting [5]) is 57.9 µg/mL (≈ 112 µM); in experiment [2], over 232 µg/mL; in experiment [3] it was over 232 µg/mL.
Regarding `Cc1c(CNC(=O)NCC23CC4CC(CC(C4)C2)C3)nn(-c2ccc(Cl)cc2Cl)c1-c1ccc(Cl)cc1` [Compound 11, 1-(((3r,5r,7r)-adamantan-1-yl)-methyl)-3-((5-(4-chlorophenyl)-1-(2,4-dichlorophenyl)-4-methyl-1H-pyrazol-3-yl)-methyl)urea], the MIC was 134 µg/mL (≈ 240 µM) in experiment [1] (setting [5]), over 134 µg/mL in experiment [2] and 33.5 µg/mL (≈ 60.1 µM) in experiment [3].
The matching figures for `Cc1c(CNS(=O)(=O)CCNC23CC4CC(C)(CC(C)(C4)C2)C3)nn(-c2ccc(Cl)cc2Cl)c1-c1ccc(Cl)cc1` [Compound 168, N-((5-(4-chlorophenyl)-1-(2,4-dichlorophenyl)-4-methyl-1H-pyrazol-3-yl)methyl)-2-(((1r,3R,5S,7r)-3,5-dimethyl-adamantan-1-yl)amino)ethane-1-sulfonamide]: 21.3 µg/mL (≈ 33.5 µM), 21.3 µg/mL (≈ 33.5 µM) and 10.7 µg/mL (≈ 16.8 µM).
The like results for `Cc1c(CNCCCNC2C3CC4CC(C3)CC2C4)nn(-c2ccc(Cl)cc2Cl)c1-c1ccc(Cl)cc1` (stereo not shown) [Compound 164, N1-((1r,3r,5r,7r)-adamantan-2-yl)-N3-((5-(4-chloro-phenyl)-1-(2,4-dichloro-phenyl)-4-methyl-1H-pyrazol-3-yl)methyl)propane-1,3-diamine] were, in that order, over 207 µg/mL, 3.24 µg/mL (≈ 5.81 µM) and 3.24 µg/mL (≈ 5.81 µM).
Take `Cc1c(C(=O)NCCNC2C3CC4CC(C3)CC2C4)nn(-c2ccc(Cl)cc2Cl)c1-c1ccc(Cl)cc1` (stereo not shown) [Compound 17, N-(2-(((1r,3r,5r,7r)-adamantan-2-yl)amino)ethyl)-5-(4-chloro-phenyl)-1-(2,4-dichlorophenyl)-4-methyl-1H-pyrazole-3-carboxamide]: the “inhibitory effect on smegmatis strain” value in experiment [1] was “good inhibitory effects”. In addition, the MIC in experiment [1] (setting [5]) worked out at 11.9 µg/mL (≈ 21.3 µM). Besides, in experiment [2], the MIC stood at 5.95 µg/mL (≈ 10.7 µM) and the “inhibitory effect on BCG strain” value was “good inhibitory effects”. Further, in experiment [3], the “inhibitory effect on H37Ra strain” value is recorded as “good inhibitory effects” and the MIC was determined as 5.95 µg/mL (≈ 10.7 µM).
